In US20150209327A1, “METHODS FOR THE TREATMENT OF OBESITY USING APREMILAST” (Celgene Corporation, priority 2014, published 2015):
Where “and” joins values, the source holds several entries; their conditions need not be identical. Equal values may be shown once.

Columns and labels:
PDE6 = target: T1, PDE6 (Bos taurus, UniProt P11541+P23439); test: PDE6 enzyme assay; format: biochemical
T1 sequence (P11541 1-859): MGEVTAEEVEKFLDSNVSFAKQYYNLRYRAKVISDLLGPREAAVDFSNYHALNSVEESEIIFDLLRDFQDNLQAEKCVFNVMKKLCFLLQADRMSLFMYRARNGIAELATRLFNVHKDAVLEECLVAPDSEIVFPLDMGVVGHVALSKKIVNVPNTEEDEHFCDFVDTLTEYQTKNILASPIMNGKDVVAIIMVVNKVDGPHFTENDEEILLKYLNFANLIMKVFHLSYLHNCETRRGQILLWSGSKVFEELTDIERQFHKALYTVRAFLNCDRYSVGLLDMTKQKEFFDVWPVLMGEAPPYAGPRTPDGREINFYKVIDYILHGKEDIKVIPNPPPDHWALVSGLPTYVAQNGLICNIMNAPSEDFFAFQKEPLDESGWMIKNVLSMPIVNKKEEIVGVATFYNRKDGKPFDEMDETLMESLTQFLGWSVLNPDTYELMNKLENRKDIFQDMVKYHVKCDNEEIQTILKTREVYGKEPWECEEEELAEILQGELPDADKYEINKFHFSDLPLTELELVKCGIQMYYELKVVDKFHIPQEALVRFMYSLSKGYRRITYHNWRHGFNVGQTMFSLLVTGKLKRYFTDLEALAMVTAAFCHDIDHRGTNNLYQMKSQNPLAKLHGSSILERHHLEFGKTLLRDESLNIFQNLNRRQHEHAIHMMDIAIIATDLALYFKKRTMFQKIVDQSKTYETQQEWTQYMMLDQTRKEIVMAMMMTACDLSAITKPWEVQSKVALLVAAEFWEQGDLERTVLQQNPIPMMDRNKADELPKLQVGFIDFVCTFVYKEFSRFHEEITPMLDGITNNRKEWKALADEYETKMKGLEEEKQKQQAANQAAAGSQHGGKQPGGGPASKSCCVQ
T1 sequence (P23439 1-853): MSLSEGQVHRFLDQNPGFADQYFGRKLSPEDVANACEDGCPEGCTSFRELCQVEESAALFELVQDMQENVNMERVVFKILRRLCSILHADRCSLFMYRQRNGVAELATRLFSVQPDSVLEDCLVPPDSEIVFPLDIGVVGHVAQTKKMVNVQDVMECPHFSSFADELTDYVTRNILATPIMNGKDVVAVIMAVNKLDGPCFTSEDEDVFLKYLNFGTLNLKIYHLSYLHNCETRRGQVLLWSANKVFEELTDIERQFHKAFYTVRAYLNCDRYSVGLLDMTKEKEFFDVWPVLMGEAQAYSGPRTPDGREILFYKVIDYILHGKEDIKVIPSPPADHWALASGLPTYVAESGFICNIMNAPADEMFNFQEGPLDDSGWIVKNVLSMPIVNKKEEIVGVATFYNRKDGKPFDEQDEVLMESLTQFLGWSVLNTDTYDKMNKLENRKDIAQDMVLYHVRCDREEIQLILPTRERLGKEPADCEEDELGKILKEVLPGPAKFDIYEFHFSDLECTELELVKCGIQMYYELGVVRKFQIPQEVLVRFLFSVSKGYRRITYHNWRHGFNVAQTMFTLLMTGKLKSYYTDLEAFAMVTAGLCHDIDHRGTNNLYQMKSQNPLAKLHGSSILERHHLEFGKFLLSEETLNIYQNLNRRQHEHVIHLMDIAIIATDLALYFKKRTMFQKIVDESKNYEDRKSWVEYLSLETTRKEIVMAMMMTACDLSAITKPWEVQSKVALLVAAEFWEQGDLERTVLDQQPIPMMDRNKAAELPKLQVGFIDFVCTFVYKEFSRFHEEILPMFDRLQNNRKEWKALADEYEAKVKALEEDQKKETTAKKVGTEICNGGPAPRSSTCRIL
Experimental: PDE1, 2, 3 and 5 enzyme assays were prepared as described by Hidaka and Asano. Biochem. Biophys. Acta., 1976, 429:485; see also Nicholsen et al., Trends Pharmaco. Sci., 1991, 12:19. The PDE6 enzyme assay was prepared according to Baehr et al., J. Biol. Chem., 1979, 254:11669 and Gillespie et al., Mol. Pharm., 1989, 36: 773. The PDE7 enzyme assay was prepared according to Bloom and Beavo. Proc. Natl. Acad. Sci. USA, 1996, 93:14188-92.

TNF-α production = test: Inhibition of TNF-α production in a mouse model; format: in vivo
Text: The test methods were as described in WO 03/080049; Muller et al., J. Med. Chem., 1996, 39:3238; and Muller et al., Bioorg. Med. Chem. Lett., 1999, 9:1625-30.

[1] = Psoriasis (PSOR) Phase 3 Data Pool: weight change; format: in vivo, human; details: 30 mg BID; for Weight % Change Category 0%, n (%) / Weight % Change Category <−20%, n (%) / Weight % Change Category >0% to ≦5%, n (%) / Weight % Change Category >5% to ≦10%, n (%) / Weight % Change Category >10% to ≦20%, n (%) / Weight % Change Category >20%, n (%) / Weight % Change Category ≧−5% to <0%, n (%) / Weight % Change Category ≧−10% to <−5%, n (%) / Weight % Change Category ≧−20% to <−10%, n (%): Subjects as Treated; for observed weight loss of greater than 10%, subjects n (%): subjects as treated
Text: Apremilast has shown benefit of weight loss in both Phase 2 and Phase 3 Psoriatic Arthritis (PSA) and Psoriasis (PSOR) trials.

[2] = Apremilast-exposure Period, m = 1133
[3] = End of Period (APR, apremilast exposure), Subjects as Initially Treated at Week 0
[4] = End of Period (PBC), Subjects as Initially Treated at Week 0
[5] = End of Period (apremilast exposure), Apremilast Subjects as Treated
[6] = Week 52, Apremilast Subjects as Treated
[7] = Week 78, Apremilast Subjects as Treated

SMILES: CCOc1cc([C@@H](CS(C)(=O)=O)N2C(=O)c3cccc(NC(C)=O)c3C2=O)ccc1OC [Apremilast, (+)-2-[1-(3-ethoxy-4-methoxyphenyl)-2-methylsulfonylethyl]-4-acetylaminoisoindoline-1,3-dione]
- inhibition at 10 µM (PDE6): -6%
- EC50, inhibition of TNF-α production in a mouse model (TNF-α production): 0.05 mg/kg
- weight decrease reported, subjects n (%) [1]: 18 (1.5%) n (%)
- Weight % Change Category 0%, n (%) [1, 2]: 72 (6.4) n (%)
- Weight % Change Category <−20%, n (%) [1, 2]: 9 (0.8) n (%)
- Weight % Change Category >0% to ≦5%, n (%) [1, 2]: 283 (25.0) n (%)
- Weight % Change Category >5% to ≦10%, n (%) [1, 2]: 61 (5.4) n (%)
- Weight % Change Category >10% to ≦20%, n (%) [1, 2]: 19 (1.7) n (%)
- Weight % Change Category >20%, n (%) [1, 2]: 1 (0.1) n (%)
- Weight % Change Category ≧−5% to <0%, n (%) [1, 2]: 470 (41.5) n (%)
- Weight % Change Category ≧−10% to <−5%, n (%) [1, 2]: 162 (14.3) n (%)
- Weight % Change Category ≧−20% to <−10%, n (%) [1, 2]: 56 (4.9) n (%)
- observed weight loss of greater than 10%, subjects n (%) ([1]; Apremilast-exposure Period): 65(5.7%) n (%)
- Change From Baseline (kg) Median (Min, Max) [1, 3]: −1.00 (−39.4, 22.3) kg
- Weight, kg End of Period Mean ± SD [1, 3]: 91.05 ± 21.694 kg
- Change From Baseline (kg) Mean ± SD ([1]; End of Period (APR, apremilast exposure), Subjects as Initially Treated at Week 0, listed as APR): -1.67 kg and -1.67 ± 5.437 kg
- Change From Baseline (kg) Median (Min, Max) [1, 4]: −1.00 (−34.9, 28.0) kg
- Weight, kg End of Period Mean ± SD [1, 4]: 91.35 ± 21.673 kg
- Change From Baseline (kg) Mean ± SD ([1]; End of Period (PBC), Subjects as Initially Treated at Week 0, listed as APR): -1.45 kg and -1.45 ± 3.891 kg
- Change From Baseline (kg) Mean ± SD [1, 5]: -1.76 ± 5.344 kg
- Change From Baseline (kg) Median (Min, Max) [1, 5]: −1.10 (−39.4, 22.3) kg
- Weight, kg Time Point Mean ± SD [1, 5]: 90.72 ± 21.669 kg
- Change From Baseline (kg) Median (Min, Max) [1, 6]: −1.40 (−39.0, 15.6) kg
- Weight, kg Time Point Mean ± SD [1, 6]: 90.98 ± 22.291 kg
- Change From Baseline (kg) Mean ± SD ([1]; Week 52, Apremilast Subjects as Treated, listed as APR): -1.99 kg and -1.99 ± 5.640 kg
- Change From Baseline (kg) Median (Min, Max) [1, 7]: −2.30 (−28.0, 14.9) kg
- Weight, kg Time Point Mean ± SD [1, 7]: 89.72 ± 22.231 kg
- Change From Baseline (kg) Mean ± SD ([1]; Week 78, Apremilast Subjects as Treated, listed as APR): -2.72 kg and -2.72 ± 5.792 kg
- percentage of subjects with weight change of >−10% to <−5% ([1]; Weeks 0-16): 11.7%
- Weight % Change Category 0%, n (%) ([1]; Weeks 0-16, m = 1127): 108 (9.6) n (%)
- Weight % Change Category <−20%, n (%) ([1]; Weeks 0-16, m = 1127): 2 (0.2) n (%)
- Weight % Change Category >0% to ≦5%, n (%) ([1]; Weeks 0-16, m = 1127): 277 (24.6) n (%)
- Weight % Change Category >5% to ≦10%, n (%) ([1]; Weeks 0-16, m = 1127): 24 (2.1) n (%)
- Weight % Change Category >10% to ≦20%, n (%) ([1]; Weeks 0-16, m = 1127): 6 (0.5) n (%)
- Weight % Change Category >20%, n (%) ([1]; Weeks 0-16, m = 1127): 1 (0.1) n (%)
- Weight % Change Category ≧−5% to <0%, n (%) ([1]; Weeks 0-16, m = 1127): 557 (49.4) n (%)
- Weight % Change Category ≧−10% to <−5%, n (%) ([1]; Weeks 0-16, m = 1127): 132 (11.7) n (%)
- Weight % Change Category ≧−20% to <−10%, n (%) ([1]; Weeks 0-16, m = 1127): 20 (1.8) n (%)
- observed weight loss of greater than 10%, subjects n (%) ([1]; Weeks 0 to 16): 22 (2.0%) n (%)
- body weight of the majority of subjects ([1]; regardless of duration of exposure): maintained their body weight within 0% and 5% of baseline
